Measurements from ChEMBL document CHEMBL1201862, “PubChem BioAssay data set” (2004).
Activity calls are given as the source filed them.

Key:
[1] = target: T1, Heat shock factor protein 1 (Mus musculus, UniProt P38532); assay: HSF1 potentiators in luciferase reporter cells, confirmation, cell-based, NIH3T3, luminescence, dose retest (AID 435004); assay type: functional;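 further: stress induced by proteasome inhibitor MG132 added 30 min after compound; luciferase reporter driven by HSF1 response element in NIH3T3 cells; actives raise luminescence as potentiators of the MG132 stress response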
T1 sequence (P38532 whole entry): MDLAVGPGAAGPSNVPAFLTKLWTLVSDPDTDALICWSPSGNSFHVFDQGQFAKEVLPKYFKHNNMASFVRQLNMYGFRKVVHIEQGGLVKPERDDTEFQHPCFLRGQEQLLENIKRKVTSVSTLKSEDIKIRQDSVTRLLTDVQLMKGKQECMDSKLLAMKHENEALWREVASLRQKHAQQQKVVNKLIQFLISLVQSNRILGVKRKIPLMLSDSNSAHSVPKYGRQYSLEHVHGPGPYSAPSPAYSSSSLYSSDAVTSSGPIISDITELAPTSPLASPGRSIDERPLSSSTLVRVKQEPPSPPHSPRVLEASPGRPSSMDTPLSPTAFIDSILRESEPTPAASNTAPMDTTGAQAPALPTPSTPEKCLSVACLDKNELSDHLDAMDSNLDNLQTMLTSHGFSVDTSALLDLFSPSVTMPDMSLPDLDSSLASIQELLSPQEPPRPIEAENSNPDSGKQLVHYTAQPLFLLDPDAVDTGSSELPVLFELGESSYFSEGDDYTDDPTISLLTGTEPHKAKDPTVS

[2] = HEp-2 cell cytotoxicity, dose response, cytotoxicity control for RSV inhibitor project, HTS (AID 2410); assay type: functional; settings: human respiratory syncytial virus
[3] = target: T2, Streptokinase A (Streptococcus pyogenes serotype M1, UniProt P10520); assay: S. pyogenes streptokinase expression inhibitors, potency, dose response, plasminogen activation absorbance, OD405 (AID 1914); assay type: functional, Streptococcus pyogenes M1 GAS;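 further: secreted streptokinase activity via plasminogen activation per viability signal from cell pellet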
T2 sequence (P10520 whole entry): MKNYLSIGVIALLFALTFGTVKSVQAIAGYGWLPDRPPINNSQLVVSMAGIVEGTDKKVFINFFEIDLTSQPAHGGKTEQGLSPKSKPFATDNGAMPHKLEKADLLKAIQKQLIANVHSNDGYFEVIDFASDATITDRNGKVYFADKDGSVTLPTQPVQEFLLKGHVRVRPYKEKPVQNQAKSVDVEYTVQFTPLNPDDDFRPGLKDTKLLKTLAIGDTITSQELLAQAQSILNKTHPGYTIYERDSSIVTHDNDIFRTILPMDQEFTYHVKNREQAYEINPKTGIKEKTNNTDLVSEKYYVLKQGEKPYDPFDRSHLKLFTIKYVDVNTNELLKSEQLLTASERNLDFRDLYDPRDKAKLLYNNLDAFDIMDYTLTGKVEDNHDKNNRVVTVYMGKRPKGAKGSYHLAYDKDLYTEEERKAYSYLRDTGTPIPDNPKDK

[4] = target: T1, Heat shock factor protein 1; assay: inhibition of MG132-induced HSE-luciferase signal, confirmation, cell-based, NIH3T3, luminescence, dose retest (AID 2382); assay type: functional;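 further: NIH3T3 fibroblasts with HSF1-driven luciferase reporter stressed by proteasome inhibitor MG132; luminescence from HSF1-driven luciferase expression after 8 hours of MG132 stress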
[5] = test system: H9c2; assay: cells; assay type: functional, cell-based; settings: Rattus norvegicus, H9c2, Myocardium;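 further: confirmatory concentration-response retest of ultra-high-throughput screening hits for modulation of myocardial damage; cell death induced by hydrogen peroxide oxidative stress; compound pretreatment for 60 min then peroxide exposure for 2 h; potency is for protecting the cells against peroxide damage rather than for killing them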
[6] = test system: Streptococcus sp. 'group A'; assay: growth inhibition of control SK(-) GAS strain, dose response, counter-screen for streptokinase expression inhibitor project, luminescence, kanamycin, BacTiterGlo, confirmation (AID 1900); assay type: functional, organism-based
[7] = test system: Streptococcus; assay: Group A Streptococcus viability loss, dose response, counter-screen for streptokinase expression inhibitor project, luminescence, BacTiterGlo (AID 1915); assay type: functional, organism-based;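 further: potency for reduction of bacterial viability or growth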
[8] = inhibitors of firefly luciferase expression or activity, dose response, H4 neuroglioma cells, luminescence (AID 1990); assay type: functional, cell-based
[9] = Luminescence Cell-Based Dose Response HTS to Identify Inhibitors of 5'UTR Stem-Loop Driven Prion Protein mRNA Translation in H4 Neuroglioblastoma Cells. [Related pubchem assays: 1827 (Project Summary), 1813 (Primary HTS)]; assay type: functional
[10] = inhibitors of SNCA 5'UTR-driven reporter translation, confirmation, H4 neuroglioma cells, luminescence (AID 1988); assay type: functional, cell-based
[11] = Luminescence Cell-Based Dose Retest to Confirm Inhibitors of Cancer Stem Cells. [Related pubchem assays (depositor defined):AID2717, AID2721]; assay type: functional; settings: Homo sapiens
[12] = target: Cytochrome P450 2C19 (Homo sapiens, UniProt P33261); assay: Cytochrome panel assay with activity outcomes. Panel member name: p450-cyp2c19 Compounds with AC50 equal or less than 10 uM are considered active; assay type: functional; settings: read-out: AC50
[13] = target: Cytochrome P450 2C9 (Homo sapiens, UniProt P11712)
[14] = Luminescence Cell-Based Dose Confirmation HTS to Identify Activators of 5'UTR Stem-Loop Driven Alpha-Synuclein mRNA Translation in H4 Neuroglioblastoma Cells. [Related pubchem assays: 1829 (Project Summary), 1814 (Primary HTS)]; assay type: functional
[15] = Luminescence Cell-Based Dose Response HTS to Identify Activators of Luciferase Translation or Activity in H4 […] Cells. [Related pubchem assays: 1829 (Project Summary), 1814 (Primary HTS)]; assay type: functional
[16] = test system: H4; assay: Luminescence Cell-Based Dose Response HTS to Identify Activators of 5'UTR Stem-Loop Driven Prion Protein mRNA Translation in H4 Neuroglioblastoma Cells. [Related pubchem assays: 1829 (Project Summary), 1814 (Primary HTS)]; assay type: functional; settings: Homo sapiens

Sequence of Cytochrome P450 2C9 (P11712 whole entry): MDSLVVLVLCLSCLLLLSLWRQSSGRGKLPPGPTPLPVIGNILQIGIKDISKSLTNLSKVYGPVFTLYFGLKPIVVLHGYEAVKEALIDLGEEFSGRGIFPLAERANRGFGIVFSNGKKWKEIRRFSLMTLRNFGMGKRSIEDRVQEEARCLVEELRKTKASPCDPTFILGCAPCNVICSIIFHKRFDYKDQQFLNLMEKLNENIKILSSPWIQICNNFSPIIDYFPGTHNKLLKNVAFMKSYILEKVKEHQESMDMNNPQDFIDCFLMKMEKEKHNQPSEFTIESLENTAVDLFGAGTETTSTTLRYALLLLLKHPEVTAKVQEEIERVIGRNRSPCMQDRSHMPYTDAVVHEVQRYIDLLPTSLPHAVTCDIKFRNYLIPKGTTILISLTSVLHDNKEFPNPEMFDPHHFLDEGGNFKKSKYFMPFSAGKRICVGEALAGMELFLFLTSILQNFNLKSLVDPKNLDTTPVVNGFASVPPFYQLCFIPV
Sequence of Cytochrome P450 2C19 (P33261 whole entry): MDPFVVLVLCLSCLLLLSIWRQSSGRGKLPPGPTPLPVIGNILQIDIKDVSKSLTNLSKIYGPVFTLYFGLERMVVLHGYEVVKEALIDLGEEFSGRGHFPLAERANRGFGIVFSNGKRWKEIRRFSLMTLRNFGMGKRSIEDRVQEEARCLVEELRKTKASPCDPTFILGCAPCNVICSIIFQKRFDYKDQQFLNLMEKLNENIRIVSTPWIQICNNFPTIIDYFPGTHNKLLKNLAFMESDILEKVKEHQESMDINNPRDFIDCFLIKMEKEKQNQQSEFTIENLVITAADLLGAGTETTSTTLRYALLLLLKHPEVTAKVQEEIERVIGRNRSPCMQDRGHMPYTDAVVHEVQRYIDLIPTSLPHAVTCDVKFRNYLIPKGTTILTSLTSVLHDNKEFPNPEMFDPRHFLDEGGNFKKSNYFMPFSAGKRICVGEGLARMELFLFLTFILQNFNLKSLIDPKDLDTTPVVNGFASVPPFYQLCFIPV

Structure (SMILES): CCOC(=O)CN1CCC(c2cc(-c3ccc(Cl)cc3)[nH]n2)CC1
- EC50 [1]: > 260 µM (inactive)

Structure (SMILES): COc1ccccc1N1CCN(C(=O)c2sc3nc(C)nc(N4CCN(c5ccccn5)CC4)c3c2C)CC1
- CC50 [2]: 20 µM (active)

Structure (SMILES): Cc1nnc(SC(C(=O)Nc2cc(Cl)cc(Cl)c2)c2ccccc2)[nH]c1=O (stereo not given)
- EC50 [3]: > 150 µM (not active)

Structure (SMILES): O=C[C@H](O)[C@@H](O)[C@H](O)CO [XYLOSE]
- EC50 [4]: > 195 µM (not active)

Structure (SMILES): O=S(=O)(c1ccccc1)N1CCCC(c2nc(O)c3nnn(Cc4cccc(Cl)c4)c3n2)C1 (stereo not given)
- CC50 [2]: 13.1 µM (active)

Structure (SMILES): COC(=O)c1c(C)[nH]c(C)c1-c1cccc([N+](=O)[O-])c1
- EC50 [4]: > 195 µM (not active)

Structure (SMILES): COCCCn1c(Cc2csc(Nc3ccc(F)cc3)n2)nnc1SCC(N)=O
- EC50 [1]: > 260 µM (inactive)

Structure (SMILES): CCN(CC)S(=O)(=O)c1cc(C(=O)Nc2cc(C)on2)ccc1Cl
- EC50 [4]: > 195 µM (not active)

Structure (SMILES): Cc1nc(NC(=O)/C=C/c2ccc(Cl)cc2Cl)sc1C(=O)N(C)C
- EC50 [4]: > 195 µM (not active)

Structure (SMILES): CN(C)C=O.COc1cc(/C=C/c2nc3ccccc3c(=O)n2-c2ccc(O)cc2)ccc1O
- IC50 [5]: > 79 µM (inactive)

Structure (SMILES): COc1ccc(-c2cc(C(=O)N(C)Cc3ccccc3F)c3ccccc3n2)cc1OC
- IC50 [5]: 30.2 µM (inactive)

Structure (SMILES): Cc1ccc(Cl)cc1N1CCN(C2CCCCC2NS(=O)(=O)c2ccccc2)CC1 (stereo not given)
- EC50 [1]: > 260 µM (inactive)

Structure (SMILES): COC(=O)c1cc2ccc(OC)cc2c2cc(OC)c(OC)cc12
- IC50 [5]: > 79 µM (inactive)

Structure (SMILES): Cc1ccc(S(=O)(=O)NCCC(=O)N2CCN(S(=O)(=O)c3ccccc3)CC2)cc1C
- EC50 [4]: > 195 µM (not active)

Structure (SMILES): O=C1N=C(Nc2ccc(Cl)cc2)SC1Cc1cc(Cl)ccc1Cl (stereo not given)
- EC50 [6]: 2.64 µM (active)
- EC50 [3]: > 150 µM (not active)
- EC50 [7]: 7.38 µM (active)

Structure (SMILES): O=C1CCCN1CCC1CCN(C(=O)Nc2ccccc2)CC1
- EC50 [4]: > 195 µM (not active)

Structure (SMILES): CC(C)c1ccc(NC(=O)CNC(=O)Cn2cnc3ccccc3c2=O)cc1
- EC50 [4]: 60.8 µM (active)

Structure (SMILES): CCOC(=O)Cc1cnc(NC(=O)NC(C(=O)OCC)(c2ccccc2)C(F)(F)F)s1 (stereo not given)
- EC50 [1]: > 260 µM (inactive)

Structure (SMILES): CCCN=C(S)NC1CC2CCCC(C1)N2Cc1ccc(F)cc1 (stereo not given)
- EC50 [4]: > 195 µM (not active)

Structure (SMILES): CCCCn1nc(NC(=O)c2cccs2)c2cc3cc(OC)ccc3nc21
- IC50 [5]: > 79 µM (inactive)

Structure (SMILES): Cc1cc2c(cc1S(=O)(=O)N1CCc3ccccc31)NC(=O)CO2
- CC50 [2]: 13.8 µM (active)

Structure (SMILES): COc1ccc(-c2cc(C(=O)NNC(=O)c3csc(N4CCOCC4)n3)c3ccccc3n2)cc1
- IC50 [5]: > 79 µM (inactive)

Structure (SMILES): CC(Cc1ccccc1)C(=O)Nc1ccccc1 (stereo not given)
- EC50 [4]: > 195 µM (not active)

Structure (SMILES): Cc1ccc(NC(=O)c2ccccc2O)cc1
- EC50 [1]: 35.5 µM (active)

Structure (SMILES): O=C(Nc1ccc(Nc2ccccc2)cc1)c1ccc(Cl)c([N+](=O)[O-])c1
- CC50 [2]: 18.7 µM (active)

Structure (SMILES): COc1ccc(CCCC(=O)N/N=C/c2cccc(OC)c2O)cc1C
- EC50 [8]: 11.1 µM (active)
- EC50 [6]: 2.9 µM (active)
- EC50 [9]: 48.6 µM (active)
- EC50 [10]: 10.6 µM (active)
- EC50 [3]: > 150 µM (not active)
- EC50 [7]: 3.61 µM (active)
- AC50 [11]: 0.936 µM (active)

Structure (SMILES): Oc1ccc(Br)cc1/C=N/NC(=S)NCCc1ccccc1
- EC50 [6]: 1.58 µM (active)
- EC50 [3]: > 150 µM (not active)
- EC50 [7]: 6.21 µM (active)
- AC50 [11]: 4.29 µM (active)

Structure (SMILES): COc1cc(NC(=O)c2cc(C)nc3ccccc23)cc(OC)c1
- EC50 [4]: > 195 µM (not active)

Structure (SMILES): Cc1cccc(C)c1OCC(=O)N/N=C/C=C/c1ccco1
- EC50 [1]: > 260 µM (inactive)

Structure (SMILES): COc1cc(/C=N/NC(=O)c2cccnc2)ccc1OS(=O)(=O)c1cc(C)ccc1C
- IC50 [5]: > 79 µM (inactive)

Structure (SMILES): Clc1c(-c2nnc3n2CCC3)sc2ccccc12
- CC50 [2]: 30.9 µM (active)

Structure (SMILES): O=[N+]([O-])c1ccc(N2CCc3ccccc3C2)nc1
- CC50 [2]: 19.6 µM (active)

Structure (SMILES): CC1Cc2ccccc2N1C(=O)c1cc2c(=O)n3ccccc3nc2n1C (stereo not given)
- AC50 [12]: 7.08 µM (inconclusive)
- IC50 [5]: 59.3 µM (inactive)
- AC50 [13]: 14.1 µM (inconclusive)

Structure (SMILES): CCN(CC)c1ccc([N+](=O)[O-])cc1C(=O)N1CCOCC1
- EC50 [1]: > 260 µM (inactive)

Structure (SMILES): Cc1ccc(NC(=O)C(OC(=O)c2ccc(NC(N)=O)cc2)c2ccccc2)cc1Cl (stereo not given)
- EC50 [6]: 9.28 µM (active)
- EC50 [3]: > 150 µM (not active)
- EC50 [7]: 9.31 µM (active)

Structure (SMILES): O=C(NN1C(=O)C2C(C1=O)C1C=CC2C12CC2)c1ccc(Cl)cc1 (stereo not given)
- EC50 [1]: > 260 µM (inactive)

Structure (SMILES): O=C(CCc1nc(O)c2ccccc2n1)NCC(=O)Nc1ccc(F)c(F)c1
- IC50 [5]: 25.2 µM (active)

Structure (SMILES): Cc1ccc(C2C(C#N)=C(N)SC(N)=C2C#N)c(C)c1
- EC50 [1]: > 260 µM (inactive)

Structure (SMILES): O=C(CN1CCN(c2ccc(F)cc2)CC1)Nc1cccc(C(F)(F)F)c1
- CC50 [2]: 29.2 µM (active)

Structure (SMILES): COC(=O)c1cc(NC(=O)c2cc(-c3ccc(OC)cc3)oc2C(F)(F)F)ccc1N1CCOCC1
- CC50 [2]: 13.4 µM (active)

Structure (SMILES): O=C(COC(=O)Cc1nnc(O)c2ccccc12)NNC(=O)c1ccc(Cl)cc1
- IC50 [5]: > 79 µM (inactive)

Structure (SMILES): CCCN1C(=O)/C(=C/c2c[nH]nc2-c2ccccc2)SC1=S
- CC50 [2]: 20.7 µM (active)

Structure (SMILES): CCn1c(SCC(=O)Nc2oc(-c3ccccc3)c(-c3ccccc3)c2C#N)nnc1-c1ccco1
- EC50 [6]: 10.7 µM (active)
- EC50 [3]: 58.8 µM (active)
- EC50 [7]: > 150 µM (not active)

Structure (SMILES): c1ccn2c(SCc3cn4ccsc4n3)nnc2c1
- EC50 [14]: 0.408 µM (active)
- EC50 [15]: 2.4 µM (active)
- EC50 [16]: 108 µM (active)

Structure (SMILES): N#Cc1c(N)nc2c(c1N)CC(COc1ccccc1)O2 (stereo not given)
- EC50 [14]: 47.2 µM (active)
- EC50 [15]: 20.2 µM (active)
- EC50 [16]: 10.7 µM (active)

Structure (SMILES): CC(=O)Nc1ccc(Nc2nc3c(S(=O)(=O)c4ccc(C)c(C)c4)nnn3c3ccccc23)cc1
- EC50 [1]: 112 µM (active)

Structure (SMILES): CC1=CC(C)(C)N=C(Nc2ccc(C)cc2)S1
- EC50 [14]: 15.2 µM (active)
- EC50 [15]: 12.6 µM (active)
- EC50 [16]: 24.4 µM (active)
